Assay results published in patent publication US8084459B2, “Substituted quinazolinones for treating neurological conditions” (Prana Biotechnology Ltd, priority 2004, dated 2011).
Counter-ions that a name gives are not always drawn.

What was measured:
[1] = target: T1, Aβ 1-42 (Homo sapiens, UniProt P05067); test: Assay 1 Fluorometric H2O2 assay (peroxide); type: biochemical; conditions: inhibition of H2O2 generation by Aβ with copper
T1 construct: The reaction solutions contained Aβ 1-42 at concentrations
Procedure: Assay 1. Fluorometric H2O2 Assay
A fluorometric assay was used to test the ability of a test compound to inhibit hydrogen peroxide generation by Aβ in the presence of copper based on dichlorofluoroscein diacetate (DCF; Molecular Probes, Eugene Oreg.). The DCF solution (5 mM) in 100% dimethyl sulphoxide (previously purged with argon for 1 hr at 20° C.) was deacetylated in the presence of 0.025M NaOH for 30 min and neutralised at pH 7.4 to a final concentration of 1 mM. Horseradish peroxidase (HRP) stock solution was prepared to 1 μM at pH 7.4. The reactions were carried out in PBS, pH 7.4 in a 96 well plate (total volume=250 μl/well). The reaction solutions contained Aβ 1-42 at concentrations in the range of 50 nM to 1 μM, copper-glycine chelate (Cu-Gly), was prepared by adding CuCl2 to glycine in the ratio of 1:6 and added to the Aβ in the proportion 2Cu-Gly:1Aβ), reducing agents including dopamine (5 μM) or ascorbic acid, deacetylated DCF 100 μM, and HRP, 0.1 μM. 1-10 μM EDTA or another chelator may also be present as a control for free copper, but was not required for the assay to function. The reaction mixture was incubated at 37 C for 60 min. Catalase (4000 units/ml) and H2O2 (1-2.5 μM) standards in PBS pH 7.4 may be included as positive controls. Fluorescence was recorded using a plate reader with excitation and emission filters at […] respectively. H2O2 concentration may be established by comparing fluorescence with the H2O2 standards. Inhibition of Aβ H2O2 production was assayed by including a given concentration of test compound(s) in the test wells.

[2] = Assay 16 mouse plasma levels of test compounds; type: in vivo; conditions: highest level found in mice (Up to); oral dosing 30 mg/kg described for PB 1075-1077
Procedure: Assay 16. Determination of Mouse Plasma Levels of Test Compounds PB 1075
(§1) Oral administration of PB 1075 at 30 mg/kg, as a suspension in Na-Carboxymethyl Cellulose (CMC) was administered by oral gavage to four mice. Two mice were sacrificed 30 minutes after administration and two mice were sacrificed 60 minutes after administration. Blood was obtained by cardiac puncture and plasma separated by centrifugation.
The concentration of PB 1075 was determined by LC/MS using the triple quadrupole instrument. The mobile phase consisted of an acetonitrile (ACN)/water gradient (containing 0.05% Formic acid) and the column was a Phenomenex Lunea 5 um C8 (50×2 mm) column.
The supplied acute toxicity mouse plasma samples were directly injected following a protein precipitation with ACN. The analytical method in plasma was linear in the range of 10 to 10,000 ng/ml (R^2=0.994). Recovery of PB 1075 from plasma was ˜100%.
as §1, with “1076” for “1075”
The concentration of PB 1076 was determined by LC/MS using the triple quadrupole instrument. The mobile phase consisted of an acetonitrile (ACN)/water gradient (containing 0.05% Formic acid) and the column was a Phenomenex Luna 5 μM C8 (50×2 mm) column.
The mouse plasma samples were directly injected following a protein precipitation with ACN. The analytical method in plasma was linear in the range of 500 to 10,000 ng/ml (R^2=0.999). Recovery of PB 1076 from plasma was ˜85%.
as §1, with “1077” for “1075”
The concentration of PB 1077 was determined by LC/MS using the triple quadrupole instrument. The mobile phase consisted of an acetonitrile (ACN)/water gradient (containing 0.05% Formic acid) and the column was a Phenomenex Luna 5 μM C8 (50×2 mm) column.
The mouse plasma samples were directly injected following a protein precipitation with ACN. The analytical method in plasma was linear in the range of 5 to 5,000 ng/ml (R^2=0.999). Recovery of PB 1077 from plasma was ˜92%.

[3] = Assay 3(d) test compound cytotoxicity (MTS); type: cell-based; conditions: BL6Jx129sv, mouse, primary cortical neuronal cultures, cortical neurons; for viability at 4 days, 1 µM: read-out: Assay 3(d) Cytotoxicity (% viable at 1 uM); for viability at 4 days, 10 µM: read-out: Assay 3(d) Cytotoxicity (% viable at 10 uM)
Procedure: Primary Cortical Neuronal Cultures
Cortical cultures were prepared as previously described (White et al., 1998). Embryonic day 14 BL6Jx129sv mouse cortices were removed, dissected free of meninges and dissociated in 0.025% (wt/vol) trypsin. Dissociated cells were plated in 48 well culture plates at a density of 2×10^6 cells/mL in MEM with 25% (vol/vol) FCS and 5% (vol/vol) HS and incubated at 37° C., 2 hrs. Media was then replaced with Neurobasal media (Invitrogen Life Technologies) and B27 supplements (Invitrogen Life Technologies). Cultures were maintained at 37° C. in 5% CO2. Prior to experimentation, the culture medium was replaced with Neurobasal media and B27 minus antioxidants (Invitrogen Life Technologies).
(a) MTS Assay for Cell Viability
Cell viability is determined using the MTS assay. Culture medium is replaced with fresh neurobasal medium plus B27 supplements minus antioxidants. 1/10 volume MTS solution (Cell Titre 96 Aqueous One, Promega Corporation) and incubated at 37° C., 2 hrs. 200 microlitre aliquots are measured with a spectrophotometer at 560 nm.
(d) Assay for Test Compound Cytoxicity
Neuronal cortical cells were cultured for five days as per Assay 2 in NB media and B27 supplement.
On day six the test compounds were added to the neuronal cell cultures in NB media and B27 supplement minus antioxidants.
Test compounds were dissolved in 100% DMSO to a concentration of 2.5 mM (10 mM if excess compound was weighed out per vial—then diluted to 2.5 mM). 2.5 mM stock solution was serially diluted 1 in 10 to give working solutions of 250 uM, 25 uM, 2.5 uM. Test compounds were not added directly to cells, instead they were added to a 48 well ‘Drug Plate’ as comprised below:
Preparation of “Drug Plate”:
• Well 1: 576 ul NB+B27 (no antioxidant)*+24 ul 2.5 uM test compound • Well 2: 576 ul NB+B27 (no antioxidant)+24 ul 25 uM test compound • Well 3: 576 ul NB+B27 (no antioxidant)+24 ul 250 uM test compound • Well 4: 576 ul NB+B27 (no antioxidant)+24 ul 2.5 uM test compound • Well 5: 576 ul NB+B27 (no antioxidant)+24 ul 25 uM test compound • Well 6: 576 ul NB+B27 (no antioxidant)+24 ul 250 uM test compound • Well 7: 576 ul NB+B27 (no antioxidant)+24 ul test compound diluent** • Well 8: 600 ul NB+B27 (no antioxidant)
The Drug Plate was incubated at 37° C. for 15 mins. 200 ul of each well was added in triplicate to the corresponding cell plate. The cell plate was incubated at 37° C., for 4 days, (2 compounds are tested on each plate of cells).
* NB media and B27 (no antioxidants),
** PBT diluent 10% DMSO in NB+B27 (no antioxidants)
On completion of the assay, 1/10 volume MTS was added per well of plate (ie 25 ul/250 ul). The plates were incubated at 37° C. for 2 hrs, and then absorbance was read at 560 nm.

T1 sequence (P05067 672-713 limits assumed): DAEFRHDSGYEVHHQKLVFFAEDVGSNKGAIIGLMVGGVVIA

Row | SMILES | IC50 [1] [nM] | Assay 16 Mice plasma concentration [2] | viability at 4 days, 1 µM [3] [%] | viability at 4 days, 10 µM [3] [%]
1 | CN1CCCC1CCn1cnc2c(O)c(Cl)cc(Cl)c2c1=O (centres unmarked) [Compound 1078] | 730 | Up to 262 ng/mL in | 94 | 94
2 | Cc1cnc(-n2cnc3c(O)c(Cl)cc(Cl)c3c2=O)s1 [Compound 1082] | 4500 |  | 94 | 70
3 | Cn1c(-n2cnc3c(O)c(Cl)cc(Cl)c3c2=O)nc2ccccc21 [Compound 1083] | 2300 |  |  | 97
4 | O=c1c2c(Cl)cc(Cl)c(O)c2ncn1N1CCCCC1 [Compound 1086] | 390 |  | 98 | 51
5 | O=c1c2c(Cl)cc(Cl)c(O)c2ncn1-c1cccnc1 [Compound 1092] | 860 |  | 95 | 81
6 | COc1ccc(-n2cnc3c(O)c(Cl)cc(Cl)c3c2=O)cn1 [Compound 1093] | 390 |  | 122 | 13
7 | Br.Cc1cccnc1Cn1cnc2c(O)c(Cl)cc(Cl)c2c1=O [Compound 1098] | 440 |  | 99 | 88
8 | Nn1cnc2c(O)c(Cl)cc(Cl)c2c1=O [Compound 1099, 3-Amino-5,7-dichloro-8-hydroxy-3H-quinazolin-4-one hydrobromide] | 690 |  |  | 
9 | Br.CC(C)Cn1cnc2c(O)c(Cl)cc(Cl)c2c1=O [Compound 1107] | 400 |  | 92 | 59
10 | Br.CC(C)n1cnc2c(O)c(Cl)cc(Cl)c2c1=O [Compound 1108] | 250 |  | 100 | 53
11 | CCN(CC)CCn1cnc2c(O)c(Cl)cc(Cl)c2c1=O [Compound 1110] | 460 |  |  | 77
12 | CCCCn1cnc2c(O)c(Cl)cc(Cl)c2c1=O [Compound 1111] | 320 |  | 93 | 67
13 | Br.CCC(C)n1cnc2c(O)c(Cl)cc(Cl)c2c1=O (centres unmarked) [Compound 1112] | 330 | Upto 2949 ng/mL in | 89 | 46
14 | CC(Br)CCn1cnc2c(O)c(Cl)cc(Cl)c2c1=O (centres unmarked) [Compound 1114] | 580 |  |  | 73
15 | CCn1cnc2c(O)c(Cl)cc(Cl)c2c1=O [Compound 1115] | 730 |  | 101 | 73
16 | C/C=C/Cn1cnc2c(O)c(Cl)cc(Cl)c2c1=O [Compound 1126] | 370 |  |  | 
17 | CCn1cnc2c(O)ccc(Cl)c2c1=O [Compound 1130] | 880 |  |  | 
18 | CCCn1cnc2c(O)ccc(Cl)c2c1=O [Compound 1131] | 500 |  |  | 
19 | CN(C)Cc1nc2c(O)c(Cl)cc(Cl)c2c(=O)[nH]1 [Compound 1147] | 260 |  |  | 
20 | CNCc1nc2c(O)c(Cl)cc(Cl)c2c(=O)n1C [Compound 1161] | 140 |  |  | 
